Measured values reported in US12649751B2 (Arcus Biosciences, Inc., priority 2022, dated 2026).

What follows are compounds tested against HPK1 (Homo sapiens, UniProt Q92918) (assay: HPK1 Biochemical Assay (ADP-Glo luminescence; low ATP 10 μM or high ATP 200 μM)). Details: 2 nM HPK1, 10 μM ATP; read-out: Biochemical Potency (low ATP).
Description: Dose-response assays were performed in Corning® Low Volume 384-well assay plates containing 100 nL of 22 serial 2-fold compound dilutions. Wells containing DMSO alone were used as negative control. A kinase mixture (5 μL) containing 2 nM HPK1 (or 5 nM for high ATP assay) in assay buffer (50 mM Hepes pH 7.4, 10 mM MgCl2, 0.01% Brij-15, 0.01% bovine serum albumin, and 1 mM dithiothreitol) was added to the assay plates and incubated at 25° C. for 1 hour. Wells without HPK1 were used as positive control. A […] of 10 μM ATP (or 200 μM for high ATP) and 0.2 μg/μL […] was then added to the wells, resulting in a 10 μL total reaction volume. Following incubation of the assay plates at 25° C. for 1 hour, 10 μL of ADP-Glo reagent was added to the wells and the plates were incubated at 25° C. for a further 40 minutes (or 1 hour for high ATP assay). Finally, 20 μL of Kinase Detection Reagent was added, and the plates were incubated for another 30 minutes at 25° C. An Envision plate reader was then used to detect the luminescence signals. IC50 values were determined by fitting the data to a standard 4-parameter logistic equation. The results are summarized in the Biochemical Potency columns of Tables 4 and 5 below (Biochemical Potency (high ATP); Biochemical Potency (low ATP)).

Chain of HPK1 (Q92918 whole entry, species assumed): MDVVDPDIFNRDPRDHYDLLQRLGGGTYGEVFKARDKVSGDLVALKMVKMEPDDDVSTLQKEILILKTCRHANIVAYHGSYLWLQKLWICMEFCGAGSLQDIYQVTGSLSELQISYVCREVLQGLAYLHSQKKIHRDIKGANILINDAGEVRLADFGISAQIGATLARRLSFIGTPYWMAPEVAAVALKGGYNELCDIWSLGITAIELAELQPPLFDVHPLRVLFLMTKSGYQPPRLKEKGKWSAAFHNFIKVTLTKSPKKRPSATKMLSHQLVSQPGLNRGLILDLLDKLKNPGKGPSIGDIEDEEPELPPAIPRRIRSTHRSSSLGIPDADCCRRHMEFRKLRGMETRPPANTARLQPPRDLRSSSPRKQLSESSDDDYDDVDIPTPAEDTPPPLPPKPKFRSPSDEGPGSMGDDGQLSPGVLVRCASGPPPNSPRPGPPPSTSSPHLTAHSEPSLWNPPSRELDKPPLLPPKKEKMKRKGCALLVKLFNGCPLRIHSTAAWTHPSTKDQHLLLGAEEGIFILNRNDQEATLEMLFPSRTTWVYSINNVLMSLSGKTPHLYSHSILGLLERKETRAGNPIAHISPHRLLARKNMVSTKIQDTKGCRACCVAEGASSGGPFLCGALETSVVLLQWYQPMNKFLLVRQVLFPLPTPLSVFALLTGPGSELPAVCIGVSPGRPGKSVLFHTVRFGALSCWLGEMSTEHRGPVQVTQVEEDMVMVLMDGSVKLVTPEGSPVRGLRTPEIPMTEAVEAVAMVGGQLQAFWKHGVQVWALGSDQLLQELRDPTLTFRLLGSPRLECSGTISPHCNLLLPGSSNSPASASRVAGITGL

Compound	IC50 [nM]
CN1C[C@@H]2C[C@H]1CN2c1nccc(Nc2cc3nc(-c4cccc(C(=O)N5CCCC5)c4)sc3cn2)n1 [Example 126, 2-[(1S,4S)-5-Methyl-2,5-diazabicyclo[2.2.1]heptan-2-yl]-N-{2-[3-(pyrrolidine-1-carbonyl)phenyl]-[1,3]thiazolo[5,4-c]pyridin-6-yl}pyrimidin-4-amine]	< 100
Cc1cccc(C)c1-c1nc2cc(Nc3ccc(N4CCC(F)(F)C4)c(CN4CCCC4)n3)ncc2s1 [Example 10, 5-(3,3-Difluoropyrrolidin-1-yl)-N-[2-(2,6-dimethylphenyl)-[1,3]thiazolo[5,4-c]pyridin-6-yl]-6-[(pyrrolidin-1-yl)methyl]pyridin-2-amine]	< 100
Cc1ccc(Nc2cc3nc(-c4cccc(F)c4)sc3cn2)nc1CN1CCCC1 [Example 34]	< 100
N#Cc1ccc(-c2nc3cc(Nc4ccc(N5CCOCC5)c(CN5CCCC5)n4)ncc3s2)cc1 [Example 21, 4-(6-{[5-(Morpholin-4-yl)-6-[(pyrrolidin-1-yl)methyl]pyridin-2-yl]amino}-[1,3]thiazolo[5,4-c]pyridin-2-yl)benzonitrile]	< 100
c1cc(-c2nc3cc(Nc4nccc(N5C[C@@H]6C[C@H]5CN6)n4)ncc3s2)ccn1 [Example 241, 4-[(1S,4S)-2,5-Diazabicyclo[2.2.1]heptan-2-yl]-N-[2-(pyridin-4-yl)-[1,3]thiazolo[5,4-c]pyridin-6-yl]pyrimidin-2-amine]	< 100
Cc1cccnc1-c1nc2cc(Nc3cccc(N4C[C@H](C)N(C)[C@@H](C)C4)n3)ncc2s1 [Example 102, N-[2-(3-Methylpyridin-2-yl)-[1,3]thiazolo[5,4-c]pyridin-6-yl]-6-[(3S,5S)-3,4,5-trimethylpiperazin-1-yl]pyridin-2-amine]	100 to 1000
CN1C[C@@H]2C[C@H]1CN2c1cncc(Nc2cc3nc(-c4ccnc(N5CC[C@@H](O)C5)c4)sc3cn2)n1 [Example 263, (3R)-1-{4-[6-({6-[(1S,4S)-5-Methyl-2,5-diazabicyclo[2.2.1]heptan-2-yl]pyrazin-2-yl}amino)-[1,3]thiazolo[5,4-c]pyridin-2-yl]pyridin-2-yl}pyrrolidin-3-ol]	< 100
Cc1cc(Nc2cc3nc(-c4ncccc4C)sc3cn2)nc(O[C@H]2CCCNC2)c1 [Example 161, 4-Methyl-N-[2-(3-methylpyridin-2-yl)-[1,3]thiazolo[5,4-c]pyridin-6-yl]-6-[(3S)-piperidin-3-yloxy]pyridin-2-amine]	< 100
Cc1cc(Nc2cc3nc(-c4ncccc4C)sc3cn2)nc(OC2CCNCC2)c1 [Example 174, 4-Methyl-N-[2-(3-methylpyridin-2-yl)-[1,3]thiazolo[5,4-c]pyridin-6-yl]-6-(piperidin-4-yloxy)pyridin-2-amine]	< 100
Cc1cccnc1-c1nc2cc(Nc3cc(N4C[C@@H]5C[C@H]4CN5)ccn3)ncc2s1 [Example 86, 4-[(1S,4S)-2,5-Diazabicyclo[2.2.1]heptan-2-yl]-N-[2-(3-methylpyridin-2-yl)-[1,3]thiazolo[5,4-c]pyridin-6-yl]pyridin-2-amine]	> 5000
Cc1ccc(Nc2cc3nc(-n4nccc4C)sc3cn2)nc1CN[C@@H]1CCOC1 [Example 199, 5-Methyl-N-[2-(5-methyl-1H-pyrazol-1-yl)-[1,3]thiazolo[5,4-c]pyridin-6-yl]-6-({[(3R)-oxolan-3-yl]amino}methyl)pyridin-2-amine]	< 100
Cc1ccc(Nc2cc3nc(-c4cc(F)cc(F)c4)sc3cn2)nc1CN1CCCC1 [Example 33, N-[2-(3,5-Difluorophenyl)-[1,3]thiazolo[5,4-c]pyridin-6-yl]-5-methyl-6-[(pyrrolidin-1-yl)methyl]pyridin-2-amine]	100 to 1000
Cc1ccc(Nc2cc3nc(-c4ccc(F)cc4)sc3cn2)nc1CN1CCCC1 [Example 32, N-[2-(4-Fluorophenyl)-[1,3]thiazolo[5,4-c]pyridin-6-yl]-5-methyl-6-[(pyrrolidin-1-yl)methyl]pyridin-2-amine]	< 100
Cc1ccc(Nc2cc3nc(-c4cnn(CCO)c4)sc3cn2)nc1CN1CCCC1 [Example 40, 2-{4-[6-({5-Methyl-6-[(pyrrolidin-1-yl)methyl]pyridin-2-yl}amino)-[1,3]thiazolo[5,4-c]pyridin-2-yl]-1H-pyrazol-1-yl}ethan-1-ol]	< 100
CN1C[C@@H]2C[C@H]1CN2c1nccc(Nc2cc3nc(-c4ccnc(N5CC[C@H](O)C5)c4)sc3cn2)n1 [Example 266, (3S)-1-{4-[6-({2-[(1S,4S)-5-Methyl-2,5-diazabicyclo[2.2.1]heptan-2-yl]pyrimidin-4-yl}amino)-[1,3]thiazolo[5,4-c]pyridin-2-yl]pyridin-2-yl}pyrrolidin-3-ol]	< 100
CN1C[C@@H]2C[C@H]1CN2c1cncc(Nc2cc3nc(-c4cccc(N5CCCC5=O)c4)sc3cn2)n1 [Example 143, 1-{3-[6-({6-[(1S,4S)-5-Methyl-2,5-diazabicyclo[2.2.1]heptan-2-yl]pyrazin-2-yl}amino)-[1,3]thiazolo[5,4-c]pyridin-2-yl]phenyl}pyrrolidin-2-one]	< 100

Second part, the compound after the results:

IC50 [nM]	Compound
< 100	Cc1cccnc1-c1nc2cc(Nc3cccc(N4C[C@H]5C[C@@H]4CN5C)n3)ncc2s1 [Example 91, 6-[(1R,4R)-5-Methyl-2,5-diazabicyclo[2.2.1]heptan-2-yl]-N-[2-(3-methylpyridin-2-yl)-[1,3]thiazolo[5,4-c]pyridin-6-yl]pyridin-2-amine]
< 100	Cc1cccnc1-c1nc2cc(Nc3ccc(C)c(N4CC[C@H](N)C4)n3)ncc2s1 [Example 75, 6-[(3S)-3-Aminopyrrolidin-1-yl]-5-methyl-N-[2-(3-methylpyridin-2-yl)-[1,3]thiazolo[5,4-c]pyridin-6-yl]pyridin-2-amine]
< 100	Cc1cccnc1-c1nc2cc(Nc3ccc(C4CCOCC4)c(CN4CC[C@@H](F)C4)n3)ncc2s1 [Example 213, 6-{[(3R)-3-Fluoropyrrolidin-1-yl]methyl}-N-[2-(3-methylpyridin-2-yl)-[1,3]thiazolo[5,4-c]pyridin-6-yl]-5-(oxan-4-yl)pyridin-2-amine]
< 100	Cc1cccnc1-c1nc2cc(Nc3ccnc(N4C[C@@H]5C[C@H]4CN5)n3)ncc2s1 [Example 149, 2-[(1S,4S)-2,5-Diazabicyclo[2.2.1]heptan-2-yl]-N-[2-(3-methylpyridin-2-yl)-[1,3]thiazolo[5,4-c]pyridin-6-yl]pyrimidin-4-amine]
< 100	Cc1ccc(Nc2cc3nc(-c4ncccc4C)sc3cn2)nc1OC1CCNC1 (centres unmarked) [Example 162, 5-Methyl-N-[2-(3-methylpyridin-2-yl)-[1,3]thiazolo[5,4-c]pyridin-6-yl]-6-(pyrrolidin-3-yloxy)pyridin-2-amine]
< 100	Cc1ccc(Nc2cc3nc(-c4cnn(C5CCOCC5)c4)sc3cn2)nc1CN1CCCC1 [Example 39, 5-Methyl-N-{2-[1-(oxan-4-yl)-1H-pyrazol-4-yl]-[1,3]thiazolo[5,4-c]pyridin-6-yl}-6-[(pyrrolidin-1-yl)methyl]pyridin-2-amine]
100 to 1000	c1cc(C2CCOCC2)c(CN2CCCC2)nc1Nc1cc2nc(N3CCCC3)sc2cn1 [Example 231, 5-(Oxan-4-yl)-N-[2-(pyrrolidin-1-yl)-[1,3]thiazolo[5,4-c]pyridin-6-yl]-6-[(pyrrolidin-1-yl)methyl]pyridin-2-amine]
< 100	Cc1ccc(-c2nc3cc(Nc4ccc(C5CCOCC5)c(CN5CCCC5)n4)ncc3s2)cn1 [Example 222, N-[2-(6-Methylpyridin-3-yl)-[1,3]thiazolo[5,4-c]291yridine-6-yl]-5-(oxan-4-yl)-6-[(291yridine291ne-1-yl)methyl]291yridine-2-amine]
100 to 1000	Cc1cccnc1-c1nc2cc(Nc3cccc(N4CCN(C)C[C@H]4C)n3)ncc2s1 [Example 103, 6-[(2R)-2,4-Dimethylpiperazin-1-yl]-N-[2-(3-methylpyridin-2-yl)-[1,3]thiazolo[5,4-c]pyridin-6-yl]pyridin-2-amine]

Same assay, conditions: HPK1 ADP-Glo assay, low ATP (10 μM ATP, 2 nM HPK1); read-out: Biochemical Potency (low ATP)

IC50 [nM]	Compound
< 100	Cc1cccnc1-c1nc2cc(Nc3ccc4c(n3)[C@@](C)(N)CCC4)ncc2s1 [Example 578]
< 100	CS(=O)(=O)Nc1cccc(-c2nc3cc(Nc4cccc(N5C[C@@H]6C[C@H]5CN6)n4)ncc3s2)c1 [Example 326]
100 to 1000	CN1C[C@@H]2C[C@H]1CN2c1nccc(Nc2cc3nc(N4CCc5cnccc5C4)sc3cn2)n1 [Example 426]
< 100	CNS(=O)(=O)c1cccc(-c2nc3cc(Nc4cccc(N5C[C@@H]6C[C@H]5CN6)n4)ncc3s2)c1 [Example 324]
< 100	Cc1cccnc1-c1nc2cc(Nc3ccc4c(n3)[C@H](N)CC4)ncc2s1 [Example 582]
< 100	CN1C[C@@H]2C[C@H]1CN2c1nccc(Nc2cc3nc(-c4ncco4)sc3cn2)n1 [Example 420]
< 100	CN1C[C@@H]2C[C@H]1CN2c1nc(Nc2cc3nc(-c4ccnc(C(C)(C)O)c4)sc3cn2)cc(C2CCOCC2)n1 [Example 439]
